Source: patent publication US9642856B2, “Treatment for pancreatic cancer” (University Health Network, priority 2013, dated 2017)

Tests used:
OCIP110 tumors = assay: OCIP110 orthotopic xenograft, Compound II alone or with Cisplatin; type: in vivo, SCID mice; details: Compound II 10 mg/kg 2-on/5-off schedule, 21 days
Experimental: OCIP110 tumors were implanted orthotopically onto the pancreas of 4-5 week old SCID mice. Tumor volume was evaluated by palpation and animals were randomized into treatment groups. Animals were treated with either Compound II on a 2-on/5-off schedule with 10 mg/kg, a weekly dose of 4 mg/kg Cisplatin or the combination treatment for 21 days. Tumor weight was evaluated when tumors were excised at the end of the treatment.

PANC-1 cell line = assay: Growth inhibition (GI50) assay, SRB, PANC-1; type: cell-based; details: Homo sapiens, 120 h, PANC-1 (KRas mutant, TP53 mutant, CDKN2A homozygous deletion, SMAD4 wild-type), 5 days
From the text: (§1) BxPC-3 and PANC-1 cell lines were obtained from American Type Culture Collection (ATCC, Manassas, Va.) and maintained according to the supplier's instructions. Short tandem repeat (STR) profiling was used to verify authenticity of the cell lines. Sixteen STR loci were simultaneously amplified in a multiplex PCR reaction (The Hospital for Sick Children, Toronto, Canada), and the ATCC database was used for comparison, where possible. Cell lines were routinely tested for mycoplasma and used at low passage numbers (<15).
(§2) Cells were seeded at 3000 per 80 μL, into 96-well plates according to cell growth rate 24 hours before compound overlay and cultured at 37° C. and 5% CO2. Compounds were prepared as 10 mM stocks in 100% DMSO. […] After 5 days, cell growth in each well was assessed by the sulforhodamine B (SRB) assay measuring total protein content. […] The SRB was solubilized with 100 μL of 10 mM Tris pH 10.5 per well, and absorbance was read at 570 nm using a SpectraPlus microplate reader (Molecular Devices Corporation). SRB absorbance values were adjusted by subtracting the average of the baseline readings from untreated cells assessed one day after cell seeding. The percentage (%) of relative inhibition of cell growth was calculated by comparing to DMSO-treated cells. GI50s were calculated using GraphPad PRISM software (GraphPad Software Inc., San Diego, Calif.).

[1] = system: patient-derived pancreatic xenograft models; assay: Orthotopic patient-derived pancreatic xenograft models, mono-therapy; type: in vivo, NOD/SCID mice
From the text: 6 orthotopically implanted patient-derived pancreatic xenograft models with varying growth rates and levels of tumor hypoxia were used in order to investigate the efficiency of the Compound II as a mono-therapy or in combination with Gemcitabine.
The patient-derived pancreatic xenograft models were established by attaching a piece of the patient tumor on the pancreas of 4-5 week old Non-obese diabetic (NOD)/Severe combined immunodeficiency (SCID) mice. The xenograft models closely resemble the morphology of the patient specimen and represent the range of tumor morphologies described in pancreatic cancer patients.
Tumor volume was evaluated by palpation and animals were randomized into treatment groups. Animals were treated with Compound II using a daily dose of 7.5 mg/kg by oral gavage for 21 days for experiments evaluating activity as a mono-therapy, or with 13.5 mg/kg according to a 2-day-on-5-days-off schedule in combination bi-weekly 100 mg/kg Gemcitabine for 21 days.
Tumor weight after completion of the treatment and overall survival were evaluated. Immunofluorescence (IF) staining of xenograft sections was used to evaluate tumor hypoxia and proliferation. The impact of Compound II treatment on survival was examined in 6 animals per group. Mice were followed until the animals either died or had to be euthanized due to oversized tumors.

[2] = system: OCIP51 xenograft tumor initiating cells; assay: Limiting dilution assay for tumor initiating cells (TIC); type: in vivo, NOD/SCID mice; details: 52 mg/kg, tumors harvested 12 h after treatment, preliminary results
Experimental: FIG. 2(C) is a schematic overview of the limiting dilution assay. Briefly, xenograft tumors were grown to a diameter of approximately 1 cm and treated with 52 mg/kg Compound II and tumors harvested 12 h after treatment. Excised tumors were mechanically minced and a single cell suspension prepared using a DNAse, Collagenase and Protease cocktail. A sample of the single cell suspension was stained for mouse CD31-FITC and H2K-FITC to establish the mouse cell content. Cells were counted using a haemocytometer and the human content was calculated. 3-6 dilutions of human cells per sample were injected into the flank of NOD/SCID mice. 3 mice were injected into both flanks per dilution. Tumor take rate was observed over the course of 6 month. Tumor initiating frequency was calculated from using the L-Calc software. […] The remaining 3 xenograft models have been injected for the dilutions.

BxPC-3 cell line = assay: Growth inhibition (GI50) assay, SRB, BxPC-3; type: cell-based; details: Homo sapiens, 120 h, BxPC-3 (KRas wild-type, TP53 mutant, SMAD4 homozygous deletion), 5 days
From the text: as §1, §2

## COc1ccc2c(c1)[C@]1(C[C@H]1c1ccc3c(/C=C/c4ccc(CN5CCOCC5)cc4)n[nH]c3c1)C(=O)N2C [Compound II]
OCIP110 tumors
  Tumor weight at the end of the treatment: reduced tumor weight
PANC-1 cell line
  GI50: 25 nM
[1]; 7.5 mg/kg daily by oral gavage for 21 days, mono-therapy, 6 xenograft models
  Tumor weight after completion of the treatment: significantly reduced tumor weight in 4 of the 6 tested patient-derived pancreatic xenograft models
[1]; OCIP51 (highly hypoxic, fast growing) model, 7.5 mg/kg daily oral, 21 days, vehicle 54 days
  medium survival: 103 days
[1]; mono-therapy for 21 days, responsive models
  overall survival: increase in overall survival in a number of responsive models
[1]; mono-therapy, highly hypoxic versus medium or low hypoxic models, preliminary results
  response to treatment versus tumor hypoxia: strongest response to Compound II as a mono-therapy was observed in highly hypoxic models
[2]
  Number of tumor initiating cells (TICs): reduced the number of TICs in OCIP51
BxPC-3 cell line
  GI50: 15 nM
